Laboratory results taken from US7671056B2, “Piperazine-piperidine antagonists and agonists of the 5-HT1A receptor” (Wyeth LLC, priority 2005, dated 2010).
Like-named read-outs stand apart in the source and are kept apart here.

Experiments:
[1] = biological target: T1, human 5-HT1A receptor (Homo sapiens, UniProt P08908); experiment: cAMP measurements, agonist mode: inhibition of forskolin-induced increase in cAMP; type: cell-based; conditions: forskolin 1 uM, 5-HT1A.CHO cells
T1 construct: expressed in transfected cells
T1 sequence (P08908 1-422): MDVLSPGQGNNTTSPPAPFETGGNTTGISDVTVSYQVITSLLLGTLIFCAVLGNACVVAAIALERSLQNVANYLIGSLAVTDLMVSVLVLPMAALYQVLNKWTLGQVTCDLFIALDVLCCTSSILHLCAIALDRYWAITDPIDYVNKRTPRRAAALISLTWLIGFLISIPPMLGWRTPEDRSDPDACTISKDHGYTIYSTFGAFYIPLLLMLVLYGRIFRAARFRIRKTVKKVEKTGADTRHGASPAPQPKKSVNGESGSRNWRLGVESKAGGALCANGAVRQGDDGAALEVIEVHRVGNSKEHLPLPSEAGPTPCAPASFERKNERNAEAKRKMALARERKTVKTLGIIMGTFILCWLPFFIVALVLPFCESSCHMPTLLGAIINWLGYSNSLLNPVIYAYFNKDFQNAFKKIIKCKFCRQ
Method: The PCR cloning of the human 5-HT1A receptor subtype from a human genomic library has been described previously (Chanda et al., Mol. Pharmacol., 43:516 (1993)). A stable Chinese hamster ovary cell line expressing the human 5-HT1A receptor subtype (5-HT1A.CHO cells) was employed throughout this study. Cells were maintained in DMEM supplemented with 10% fetal calf serum, non-essential amino acids and penicillin/streptomycin.
Measurements were performed as described in Dunlop, J. et al., supra. Assays were performed by incubating the cells with DMEM containing 25 mM HEPES, 5 mM theophylline and 10 μM pargyline for a period of 20 minutes at 37° C. Functional activity was assessed by treating the cells with forskolin (1 uM final concentration) followed immediately by test compound (6 different concentrations) for an additional 10 minutes at 37° C. In separate experiments, 6 concentrations of antagonist were preincubated for 20 min prior to the addition of 10 nM 8-OH-DPAT and forskolin. The reaction was terminated by removal of the media and addition of 0.5 ml ice cold assay buffer. Plates were stored at −20° C. prior to assessment of cAMP formation by a cAMP SPA assay (Amersham). […]

[2] = biological target: T1, human 5-HT1A receptor; experiment: Radioligand binding with [3H]8-OH-DPAT on membranes of 5-HT1A.CHO cells
Method: The PCR cloning of the human 5-HT1A receptor subtype from a human genomic library has been described previously (Chanda et al., Mol. Pharmacol., 43:516 (1993)). A stable Chinese hamster ovary cell line expressing the human 5-HT1A receptor subtype (5-HT1A.CHO cells) was employed throughout this study. Cells were maintained in DMEM supplemented with 10% fetal calf serum, non-essential amino acids and penicillin/streptomycin. Radioligand binding assays were performed as described in Dunlop, J. et al., J. Pharmacol. and Toxicol. Methods 40: 47-55 (1998), which is incorporated by reference. Cells were grown to 95-100% confluency as a monolayer before membranes were harvested for binding studies. Cells were gently scraped from the culture plates, transferred to centrifuge tubes, and washed twice by centrifugation (2000 rpm for 10 min., 4° C.) in buffer (50 mM Tris; pH 7.5). The resulting pellets were aliquoted and placed at −80° C. On the day of assay, the cells were thawed on ice, and resuspended in buffer. Studies were conducted using [^3H]8-OH-DPAT as the radioligand. The binding assay was performed in 96 well microtiter plates in a final total volume of 250 μL of buffer. Competition experiments were performed by using seven different concentrations of unlabelled drug and a final ligand concentration of 1.5 nM. Non-specific binding was determined in the presence of 10 μM 5HT. Saturation analysis was conducted by using [^3H]8-OH-DPAT at concentrations ranging from 0.3-30 nM. Following a 30 minute incubation at room temperature, the reaction was terminated by the addition of ice cold buffer and rapid filtration using a M-96 Brandel Cell Harvester (Gaithersburg, Md.) through a GF/B filter presoaked for 30 minutes in 0.5% polyethyleneimine. Table 1 provides Ki values for the tested compounds.

[3] = biological target: T1, human 5-HT1A receptor; experiment: cAMP measurements, antagonist mode: block of 8-OH-DPAT-induced inhibition of forskolin-stimulated cAMP; type: cell-based
Method: The PCR cloning of the human 5-HT1A receptor subtype from a human genomic library has been described previously (Chanda et al., Mol. Pharmacol., 43:516 (1993)). A stable Chinese hamster ovary cell line expressing the human 5-HT1A receptor subtype (5-HT1A.CHO cells) was employed throughout this study. Cells were maintained in DMEM supplemented with 10% fetal calf serum, non-essential amino acids and penicillin/streptomycin. Measurements were performed as described in Dunlop, J. et al., supra. Assays were performed by incubating the cells with DMEM containing 25 mM HEPES, 5 mM theophylline and 10 μM pargyline for a period of 20 minutes at 37° C. […] The reaction was terminated by removal of the media and addition of 0.5 ml ice cold assay buffer. Plates were stored at −20° C. prior to assessment of cAMP formation by a cAMP SPA assay (Amersham). Compounds of the invention were tested according to the protocol described. […] Compounds having 5-HT1A antagonist activity show no effect on forskolin-induced increases in cAMP levels on their own, but block the 8-OH-DPAT-induced inhibition of forskolin-stimulated increases in cAMP levels. Results are required as IC50 values (Table 1, “Antagonist Activity IC50”)

[4] = [3H]8-OH-DPAT 1.5 nM, 5-HT1A.CHO cell membranes, read-out: 5-HT1A Affinity Ki
[5] = 10 nM 8-OH-DPAT and forskolin, 5-HT1A.CHO cells, read-out: Antagonist Activity IC50

EC50 [1] [nM]	Ki [2, 4] [nM]	IC50 [3, 5] [nM]	Structure (SMILES)	Ki [2] [nM]	IC50 [3] [nM]
20	0.31		Clc1ccc(N2CCN(C3CCN(c4cccc5cccnc45)CC3)CC2)c2ncccc12 [Example 8, 5-chloro-8-{4-[1-(8-quinolinyl)-4-piperidinyl]-1-piperazinyl}quinoline]		
3.84	0.48		Clc1cc(N2CCN(C3CCN(c4cccc5cccnc45)CC3)CC2)c2ncccc2c1 [Example 11, 6-chloro-8-{4-[1-(8-quinolinyl)-4-piperidinyl]-1-piperazinyl}quinoline]		
	1.45	64.5	COc1ccc(N2CCN(C3CCN(c4cccc5cccnc45)CC3)CC2)c2ncccc12 [Example 14, 5-Methoxy-8-{4-[1-(8-quinolinyl)-4-piperidinyl]-1-piperazinyl}-quinoline]		
22	26.7		COc1ccccc1N1CCN(C2CCN(c3csc4ccccc34)CC2)CC1 [G, 1-[1-(1-benzothien-3-yl)-4-piperidinyl]-4-(2-methoxyphenyl)piperazine]		
2.4	0.38		c1cc2c(c(N3CCN(C4CCN(c5cccc6cccnc56)CC4)CC3)c1)OCCO2 [E, 8-{4-[4-(2,3-dihydro-1,4-benzo[1,4]dioxane-5-yl)-1-piperazinyl]-1-piperidinyl}quinoline]		
3.28	0.83		Cc1ccc2cccc(N3CCN(C4CCN(c5cccc6cccnc56)CC4)CC3)c2n1 [Example 10, 2-methyl-8-{4-[1-(8-quinolinyl)-4-piperidinyl]-1-piperazinyl}quinoline]		
			Clc1cc(N2CCC(N3CCN(c4cccc5[nH]ccc45)CC3)CC2)c2ncccc2c1 [I, 6-Chloro-8-{4-[4-(1H-indole-4-yl)-1-piperazinyl]-1-piperidinyl}quinoline]	40.8	
	148	1080	Clc1cc(N2CCC(N3CCN(c4coc5ccccc45)CC3)CC2)c2ncccc2c1 [Example 16, 8-{4-[4-(1-Benzofuran-3-yl)-1-piperazinyl]-1-piperidinyl}-6-chloroquinoline]		
	0.15	23.5	Fc1ccc(N2CCN(C3CCN(c4cccc5cccnc45)CC3)CC2)c2ncccc12 [Example 15]		
6.85	0.24		Fc1ccc(N2CCC(N3CCN(c4cccc5cccnc45)CC3)CC2)c2ncccc12 [C, 5-fluoro-8-{4-[4-(8-quinolinyl)-1-piperazinyl]-1-piperidinyl}-quinoline]		
29.5	1.2		COc1cc(N2CCN(C3CCN(c4cccc5cc(C(F)(F)F)cnc45)CC3)CC2)c2ncccc2c1 [L, 8-{4-[4-(6-Methoxyquinolin-8-yl)piperazin-1-yl]piperidin-1-yl}-3-(trifluoromethyl)quinoline]		
	3.04	35.5	FC(F)(F)c1ccc(N2CCN(C3CCN(c4cccc5cccnc45)CC3)CC2)c2ncccc12 [Example 12, 8-{4-[1-(8-quinolinyl)-4-piperidinyl]-1-piperazinyl}-5-(trifluoromethyl)quinoline]		
	0.46	25	Fc1cc(N2CCN(C3CCN(c4cccc5cccnc45)CC3)CC2)c2ncccc2c1 [B, 6-fluoro-8-{4-[1-(8-quinolinyl)-4-piperidinyl]-1-piperazinyl}quinoline]		
0.83	0.27		Fc1cc(N2CCN(C3CCN(c4ccc5cccnc5c4F)CC3)CC2)c2ncccc2c1 [K, 6-Fluoro-8-{4-[1-(8-fluoroquinolin-7-yl)piperidin-4-yl]piperazin-1-yl}quinoline]		
2.53	1.45		COc1ccccc1N1CCN(C2CCN(c3noc4ccccc34)CC2)CC1 [H, 3-{4-[4-(2-methoxyphenyl)-1-piperazinyl]-1-piperidinyl}-1,2-benzisoxazole]		
	75.7	176	COc1cc(N2CCN(C3CCN(Cc4cccc5cccnc45)CC3)CC2)c2ncccc2c1 [M, 6-Methoxy-8-{4-[1-(quinolin-8-ylmethyl)piperidin-4-yl]piperazin-1-yl}quinoline]		
10	0.4		c1cnc2c(N3CCC(N4CCN(c5cccc6cccnc56)CC4)CC3)cccc2c1 [Example 3, 8-{4-[1-(8-quinolinyl)-4-piperidinyl]-1-piperazinyl}quinoline]		
	0.4	3.86	COc1cc(N2CCN(C3CCN(c4cccc5cccnc45)CC3)CC2)c2ncccc2c1 [A, 6-Methoxy-8-{4-[1-(8-quinolinyl)-4-piperidinyl]-1-piperazinyl}quinoline]		
	500		Clc1cc(N2CCC(N3CCN(c4cc(Cl)cc5cccnc45)CC3)CC2)c2ncccc2c1 [Example 4, 6-chloro-8-{4-[4-(6-chloro-8-quinolinyl)-1-piperazinyl]-1-piperidinyl}quinoline]		
		3.7	COc1cc(N2CCN(C3CCN(c4ccc(F)c5cccnc45)CC3)CC2)c2ncccc2c1 [P, 5-Fluoro-8-(4-(4-(6-methoxyquinolin-8-yl)piperazin-1-yl)piperidin-1-yl)-quinoline]		
			COc1cc(N2CCN(C3CCN(c4ccc(F)c5c(OC)cc(C(F)(F)F)nc45)CC3)CC2)c2ncccc2c1 [N, 5-fluoro-4-methoxy-8-(4-(4-(6-methoxyquinolin-8-yl)piperazin-1-yl)piperidin-1-yl)-2-(trifluoromethyl)quinoline]	2.02	9.2
	106		Fc1cc(N2CCN(C3CCN(c4cc(Cl)cc5cccnc45)CC3)CC2)c2ncccc2c1 [Example 5, 8-{4-[1-(6-chloro-8-quinolinyl)-4-piperidinyl]-1-piperazinyl}-6-fluoroquinoline]		
	1.69	10.8	Fc1ccc2occ(N3CCN(C4CCN(c5ccc(F)c6cccnc56)CC4)CC3)c2c1 [F, 5-fluoro-8-{4-[4-(5-fluoro-1-benzofuran-3-yl)-1-piperazinyl]-1-piperidinyl}quinoline]		

Structure (SMILES)	EC50 [1] [nM]	Ki [2, 4] [nM]	IC50 [3, 5] [nM]	Ki [2] [nM]	IC50 [3] [nM]
COc1cc(N2CCN(C3CCN(c4c(F)ccc5cccnc45)CC3)CC2)c2ncccc2c1 [J, 8-{4-[1-(7-Fluoroquinolin-8-yl)piperidin-4-yl]piperazin-1-yl}-6-methoxyquinoline]		0.61	9.95		
c1cnc2c(N3CCC(N4CCN(c5cccc6[nH]ccc56)CC4)CC3)cccc2c1 [D, 8-{4-[4-(1H-indole-4-yl)-1-piperazinyl]-1-piperidinyl}quinoline]		0.59			24
